{"source": "paper PMC10149936", "about": "“Cofilin activation in pancreatic acinar cells plays a pivotal convergent role for mediating CCK-stimulated enzyme secretion and growth” (Frontiers in Physiology, 2023)", "key": {"[1]": {"system": "SSH1 (pS978) in pancreatic acini", "test": "SSH1 phosphorylation (pS978 SSH1 Western blot) in isolated rat pancreatic acini", "assay_type": "cell-based", "details": "for SSH1 dephosphorylation (activation) at short incubation: 0.5 min and 1.5 min, data not shown; for SSH1 phosphorylation (i.e., deactivation), maximum increment: 30 min", "description": "Pancreatic acini preparations were obtained by collagenase digestion as previously described ([Bissonnette et al., 1984]; [Sato et al., 1989]; [Ramos-Alvarez and Jensen, 2018]). […] Isolated acini and CCK1-R/Panc-1 cells (M&M 2.2.1) were also preincubated with two SSH1 inhibitors, D3 (25 μM, 1 h) ([Li et al., 2015]) or SE (50 μM, 3 h for acini; 24 h for CCK1-R/Panc-1 cells) ([Lee et al., 2017]). […] Cells were lysed in lysis buffer (50 mM Tris/HCl pH 7.5, 150 mM NaCl, 1% Triton X-100, 1% deoxycholate, 0.1% sodium azide, 1 mM EGTA, 0.4 mM EDTA, 0.2 mM sodium orthovanadate, 1 mM PMSF, and one protease inhibitor tablet per 10 mL). After sonication, lysates were centrifuged at 10,000×g for 15 min at 4°C and protein concentration was measured using the Bio-Rad protein assay reagent. Finally, cells were processed as below for Western blotting.\nWestern blotting and immunoprecipitation were performed as described previously ([Ramos-Alvarez and Jensen, 2018]). Whole cell lysates were subjected to SDS-PAGE using 4%–20% Tris–Glycine gels. […] Finally, membranes were then washed again twice in blocking buffer for 4 min, twice in washing buffer for 4 min, incubated for 4 min with chemiluminescence detection reagents. The intensity of the protein bands was measured using GeneTools software from Syngene, which were assessed in the linear detection range.\nFIGURE 2 Time course of phosphorylation of Lim kinase (LIMK) (A), cofilin (B) and Slingshot 1 phosphatase (SSH1) (C) induced by CCK-8 and TPA. Isolated pancreatic acini were incubated with either no addition (control), CCK-8 (0.3 and 100 nM) or TPA (1 µM) for the indicated periods of time and then lysed. Western blots were analyzed using anti-pT508 LIMK, anti-pS3 cofilin and anti-pS978 SSH1, which […] the activation states of LIMK, cofilin and SSH1. Bands were visualized using chemiluminescence and quantified by densitometry. Top: Results of a representative blot of three independent experiments are shown. Bottom: Means ± S.E. of at least 3 independent experiments. Results are expressed as % of basal stimulation of the control group. *, p < 0.05 compared to the control group."}, "[2]": {"system": "cofilin / total PP2A association", "test": "co-immunoprecipitation of cofilin with total PP2A in pancreatic acini", "assay_type": "cell-based, rat", "details": "for increase in total PP2A co-immunoprecipitation with cofilin: CCK-8 100 nM 3 min, TPA 1 µM 5 min, Figure 8B", "description": "For co-immunoprecipitation, 600 μg of protein was incubated with 15 μL of the anti-cofilin antibody (Santa Cruz Biotechnology, Inc. Dallas, TX) and 25 μL of protein A/G agarose beads (Thermo-Fisher Scientific. Waltham, MA) overnight at 4°C under agitation. Samples were washed three times with lysis buffer, re-suspended in 12.5 μL of Sample Buffer, Laemlii 2x concentrate and boiled for 5 min before western blotting.\nFIGURE 6 Effect of CCK-8 (100 nM) to alter co-immunoprecipitation of cofilin with total PP2A (A) or PP1 (B). Isolated pancreatic acini were incubated in the absence or presence of CCK-8 (100 nM) for 3 min and then lysed. Equal amounts of protein were co-immunoprecipitated with an anti-cofilin (Santa Cruz, SC-376476) and then subjected to Western blots using anti-PP2A and anti-PP1. Bands were visualized using chemiluminescence and quantified by densitometry. Top: Results of a representative blot of four independent experiments are shown. Bottom: Means ± S.E. of at least 4 independent experiments. Results are expressed as % of basal stimulation of the control group. N.S., No significant. Effect of the lysate, lysis buffer, Protein A/G agarose beads (beads) or Anti-cofilin antibody (Anti-cofilin ab) individually on phospho and total cofilin (pS3), phospho and total PP2A, phospho and total PP1 and tubulin. Lysates were analyzed using cofilin (pS3), Total cofilin, PP2A (pY307), Total PP2A, PP1(pT320), Total PP1 and tubulin. Antibody detecting tubulin was used to verify loading of equal amounts of protein.\nFIGURE 8 Effect of a PKD inhibitor, kbNB, or a Src inhibitor, PP2, on the ability of CCK-8 (100 nM) and TPA (1 µM) to stimulate the association of cofilin with either phospho-PP2A (A) or total PP2A (B). Isolated pancreatic acini were incubated in the absence or presence of kbNB (0.1 µM) or PP2 (10 µM) for 3 h and then incubated with no addition (control), CCK-8 (100 nM, 3 min) or TPA (1 μM, 5 min), and then lysed. […] Bands were visualized using chemiluminescence and quantified by densitometry. […] Results are expressed as % of basal stimulation of the control group. […]"}, "[3]": {"system": "cofilin-1 in epithelial cells", "details": "micromolar concentrations, ref Zhang et al., 2018; cited from earlier work", "description": "(Figures 11, 12) CCK-8 stimulates pancreatic growth in addition to being a physiological regulator of pancreatic enzyme secretion ([Jensen, 1994]; [Dufresne et al., 2006]) The activation of p44/42 MAPK by CCK-8 is an important signaling step in mediating its growth effects ([Dufresne et al., 2006]). Therefore, to study the possible role of cofilin in the activation of p44/42 MAPK in pancreatic acini, we examined the effect on cofilin activation of preincubation with two cofilin inhibitors (Cytochalasin D, Paclitaxel). (Figure 11) ([Shoji et al., 2012]; [Zhang et al., 2018]). The concentrations ..."}}, "data": [{"compound": "COOH-terminal octapeptide of cholecystokinin [CCK-8]", "values": [{"measurement": "SSH1 dephosphorylation (activation) at short incubation", "setting": "[1]", "value": "no dephosphorylation of SSH1 (activation) was seen"}, {"measurement": "SSH1 phosphorylation (i.e., deactivation), maximum increment", "setting": "[1]; CCK-8 100 nM", "value": 162, "unit": "%"}, {"measurement": "increase in total PP2A co-immunoprecipitation with cofilin", "setting": "[2]", "value": 40, "unit": "%"}, {"measurement": "increase in PP2A immunoprecipitation with cofilin", "setting": "[2]; CCK-8 100 nM, 3 min, Figure 6", "value": 25, "unit": "%"}]}, {"compound": "CC(=O)O[C@H]1C(=O)[C@@]2(C)[C@H]([C@H](OC(=O)c3ccccc3)[C@]3(O)C[C@H](OC(=O)[C@H](O)[C@@H](NC(=O)c4ccccc4)c4ccccc4)C(C)=C1C3(C)C)[C@]1(OC(C)=O)CO[C@@H]1C[C@@H]2O", "note": "[Paclitaxel]", "values": [{"measurement": "effect on cofilin-1 expression levels", "setting": "[3]", "value": "significantly suppressed cofilin-1 expression levels"}]}, {"compound": "CCCCCCCCCCCCCC(=O)O[C@@H]1[C@@H](C)[C@@]2(O)[C@@H](C=C(CO)C[C@]3(O)C(=O)C(C)=C[C@@H]23)[C@H]2C(C)(C)[C@]12OC(C)=O", "note": "[TPA, 12-O-tetradecanoylphobol-13-acetate]", "values": [{"measurement": "SSH1 dephosphorylation (activation) at short incubation", "setting": "[1]", "value": "no dephosphorylation of SSH1 (activation) was seen"}, {"measurement": "SSH1 phosphorylation (i.e., deactivation), maximum increment", "setting": "[1]; TPA 1 µM", "value": 151, "unit": "%"}, {"measurement": "increase in total PP2A co-immunoprecipitation with cofilin", "setting": "[2]", "value": 40, "unit": "%"}]}]}
